Assays:
[1] = biological target: SRSF protein kinase 3 (Homo sapiens) (UniProt Q9UPE1); assay: Selectivity interaction (KinomeScan (DiscoverX)) EUB0000695a SRPK3; details: at 100 nM
[2] = biological target: T1, Serine/threonine-protein kinase BRSK1 (Homo sapiens) (UniProt Q8TDC3); assay: Selectivity interaction (Kinase panel (Z-LYTE Assay)) EUB0001632a BRSK1; details: at 10 µM
T1 sequence (whole entry): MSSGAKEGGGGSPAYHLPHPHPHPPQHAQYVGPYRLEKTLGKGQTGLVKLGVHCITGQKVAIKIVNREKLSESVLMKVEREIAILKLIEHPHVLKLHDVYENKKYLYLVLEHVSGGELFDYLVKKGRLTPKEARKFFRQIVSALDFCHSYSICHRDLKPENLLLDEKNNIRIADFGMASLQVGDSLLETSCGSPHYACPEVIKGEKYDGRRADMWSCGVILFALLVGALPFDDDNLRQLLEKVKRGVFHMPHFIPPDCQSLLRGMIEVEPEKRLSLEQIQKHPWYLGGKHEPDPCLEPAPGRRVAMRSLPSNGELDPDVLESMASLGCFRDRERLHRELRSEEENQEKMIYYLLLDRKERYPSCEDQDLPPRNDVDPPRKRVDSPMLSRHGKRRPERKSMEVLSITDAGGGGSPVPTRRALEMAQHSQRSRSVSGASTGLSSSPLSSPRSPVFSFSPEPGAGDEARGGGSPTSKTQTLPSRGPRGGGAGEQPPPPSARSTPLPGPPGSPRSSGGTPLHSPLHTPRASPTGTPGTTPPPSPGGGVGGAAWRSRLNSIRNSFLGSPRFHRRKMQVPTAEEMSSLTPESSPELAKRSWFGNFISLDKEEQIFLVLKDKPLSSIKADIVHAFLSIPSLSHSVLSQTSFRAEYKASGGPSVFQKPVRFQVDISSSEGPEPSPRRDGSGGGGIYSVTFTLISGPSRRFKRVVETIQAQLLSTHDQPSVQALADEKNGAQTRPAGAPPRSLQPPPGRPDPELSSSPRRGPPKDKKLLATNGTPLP

[3] = biological target: T2, Protein kinase C epsilon type (Homo sapiens) (UniProt Q02156); details: at 10 µM
T2 sequence (whole entry): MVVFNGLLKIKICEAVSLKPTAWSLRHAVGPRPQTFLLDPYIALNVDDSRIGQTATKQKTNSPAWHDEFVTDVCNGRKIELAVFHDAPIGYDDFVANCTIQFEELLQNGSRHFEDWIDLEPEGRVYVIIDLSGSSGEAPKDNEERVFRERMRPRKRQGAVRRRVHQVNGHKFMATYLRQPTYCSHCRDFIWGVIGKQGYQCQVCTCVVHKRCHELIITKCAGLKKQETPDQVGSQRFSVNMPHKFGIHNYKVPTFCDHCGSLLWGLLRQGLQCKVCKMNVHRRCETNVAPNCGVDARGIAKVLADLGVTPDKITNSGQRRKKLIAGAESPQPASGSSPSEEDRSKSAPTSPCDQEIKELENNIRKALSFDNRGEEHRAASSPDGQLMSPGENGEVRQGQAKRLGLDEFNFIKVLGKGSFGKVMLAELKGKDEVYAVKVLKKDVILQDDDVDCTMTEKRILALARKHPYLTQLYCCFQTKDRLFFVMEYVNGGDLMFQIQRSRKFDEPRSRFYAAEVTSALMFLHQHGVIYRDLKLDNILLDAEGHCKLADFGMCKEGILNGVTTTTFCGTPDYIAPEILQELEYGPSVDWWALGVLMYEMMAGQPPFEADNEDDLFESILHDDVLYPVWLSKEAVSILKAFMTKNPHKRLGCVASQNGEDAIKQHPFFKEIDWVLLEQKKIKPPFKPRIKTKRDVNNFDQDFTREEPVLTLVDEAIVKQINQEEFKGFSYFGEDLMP

[4] = biological target: T3, Aurora kinase A (Homo sapiens) (UniProt O14965); assay: Selectivity interaction (Kinase panel (Carna Biosciences)) EUB0001542aTs STK6; details: at 1 µM
T3 sequence (whole entry): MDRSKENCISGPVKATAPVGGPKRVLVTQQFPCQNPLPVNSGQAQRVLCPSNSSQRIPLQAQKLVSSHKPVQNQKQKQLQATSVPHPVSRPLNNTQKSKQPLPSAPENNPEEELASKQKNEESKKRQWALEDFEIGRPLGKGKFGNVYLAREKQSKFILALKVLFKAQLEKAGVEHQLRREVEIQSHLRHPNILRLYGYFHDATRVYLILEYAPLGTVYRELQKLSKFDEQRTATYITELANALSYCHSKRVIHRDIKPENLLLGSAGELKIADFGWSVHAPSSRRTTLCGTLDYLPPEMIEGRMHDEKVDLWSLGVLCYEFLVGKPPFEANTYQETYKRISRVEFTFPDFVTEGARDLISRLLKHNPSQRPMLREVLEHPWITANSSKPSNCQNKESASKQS

[5] = biological target: Dual specificity tyrosine-phosphorylation-regulated kinase 1B (Homo sapiens, UniProt Q9Y463); assay: Selectivity interaction (KinomeScan (DiscoverX)) EUB0001619a DYRK1B; details: at 1 µM
[6] = biological target: Serine/threonine-protein kinase 10 (Homo sapiens) (UniProt O94804); assay: Selectivity interaction (ActivX KiNativ screen (kinase selectivity in THP-1 cell lysates)) EUB0000639a STK10; format: subcellular; details: lysate, at 0.04 µM
[7] = biological target: Tyrosine-protein kinase Fer (Homo sapiens) (UniProt P16591); assay: Selectivity interaction (ActivX KiNativ screen (kinase selectivity in THP-1 cell lysates)) EUB0000639a FER; format: subcellular; details: lysate, at 0.01 µM
[8] = biological target: Serine/threonine-protein kinase 33 (Homo sapiens) (UniProt Q9BYT3); assay: Selectivity interaction (KinomeScan (DiscoverX)) EUB0000092b STK33; details: at 10 µM
Chain of Serine/threonine-protein kinase 33 (Homo sapiens) (Q9BYT3 whole entry, looked up): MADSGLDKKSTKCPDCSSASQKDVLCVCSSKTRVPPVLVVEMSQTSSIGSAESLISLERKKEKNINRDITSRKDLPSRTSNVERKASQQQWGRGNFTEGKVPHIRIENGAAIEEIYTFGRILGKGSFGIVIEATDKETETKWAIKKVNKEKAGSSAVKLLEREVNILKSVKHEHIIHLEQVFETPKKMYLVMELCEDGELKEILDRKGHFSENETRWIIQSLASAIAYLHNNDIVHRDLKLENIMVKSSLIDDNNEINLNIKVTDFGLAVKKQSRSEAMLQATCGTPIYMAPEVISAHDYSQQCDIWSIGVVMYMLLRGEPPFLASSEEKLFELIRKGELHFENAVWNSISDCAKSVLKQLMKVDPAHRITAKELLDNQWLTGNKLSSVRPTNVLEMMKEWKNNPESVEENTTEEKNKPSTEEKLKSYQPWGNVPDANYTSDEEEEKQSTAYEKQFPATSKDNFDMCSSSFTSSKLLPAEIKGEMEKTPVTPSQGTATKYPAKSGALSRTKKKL

Chain of Serine/threonine-protein kinase 10 (Homo sapiens) (O94804 whole entry, looked up): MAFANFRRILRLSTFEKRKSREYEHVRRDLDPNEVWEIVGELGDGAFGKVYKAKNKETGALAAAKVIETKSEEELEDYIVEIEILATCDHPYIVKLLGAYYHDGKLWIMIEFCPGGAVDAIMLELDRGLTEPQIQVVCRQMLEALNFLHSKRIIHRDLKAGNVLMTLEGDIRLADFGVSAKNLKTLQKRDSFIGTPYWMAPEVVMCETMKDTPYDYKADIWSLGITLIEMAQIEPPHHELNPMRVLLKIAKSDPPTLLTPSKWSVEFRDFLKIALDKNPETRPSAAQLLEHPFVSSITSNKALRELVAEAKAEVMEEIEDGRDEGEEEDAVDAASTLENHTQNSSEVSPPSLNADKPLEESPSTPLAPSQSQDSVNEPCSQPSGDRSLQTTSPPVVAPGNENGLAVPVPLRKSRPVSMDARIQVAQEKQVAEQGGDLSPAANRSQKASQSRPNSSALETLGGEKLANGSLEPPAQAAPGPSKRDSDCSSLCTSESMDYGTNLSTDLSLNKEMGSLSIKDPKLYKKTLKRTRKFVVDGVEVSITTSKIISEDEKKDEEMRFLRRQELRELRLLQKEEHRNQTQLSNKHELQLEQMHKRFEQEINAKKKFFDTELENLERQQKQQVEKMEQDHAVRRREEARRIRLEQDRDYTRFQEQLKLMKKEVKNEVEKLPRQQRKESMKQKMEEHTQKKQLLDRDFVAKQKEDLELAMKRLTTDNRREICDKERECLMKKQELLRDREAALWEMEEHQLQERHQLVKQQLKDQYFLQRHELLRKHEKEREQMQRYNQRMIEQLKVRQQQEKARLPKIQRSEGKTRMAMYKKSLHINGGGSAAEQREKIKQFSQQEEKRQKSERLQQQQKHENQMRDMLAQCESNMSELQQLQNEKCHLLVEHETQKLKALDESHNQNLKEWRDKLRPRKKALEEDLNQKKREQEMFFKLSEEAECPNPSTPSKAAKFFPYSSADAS
Chain of Dual specificity tyrosine-phosphorylation-regulated kinase 1B (Q9Y463 whole entry, looked up): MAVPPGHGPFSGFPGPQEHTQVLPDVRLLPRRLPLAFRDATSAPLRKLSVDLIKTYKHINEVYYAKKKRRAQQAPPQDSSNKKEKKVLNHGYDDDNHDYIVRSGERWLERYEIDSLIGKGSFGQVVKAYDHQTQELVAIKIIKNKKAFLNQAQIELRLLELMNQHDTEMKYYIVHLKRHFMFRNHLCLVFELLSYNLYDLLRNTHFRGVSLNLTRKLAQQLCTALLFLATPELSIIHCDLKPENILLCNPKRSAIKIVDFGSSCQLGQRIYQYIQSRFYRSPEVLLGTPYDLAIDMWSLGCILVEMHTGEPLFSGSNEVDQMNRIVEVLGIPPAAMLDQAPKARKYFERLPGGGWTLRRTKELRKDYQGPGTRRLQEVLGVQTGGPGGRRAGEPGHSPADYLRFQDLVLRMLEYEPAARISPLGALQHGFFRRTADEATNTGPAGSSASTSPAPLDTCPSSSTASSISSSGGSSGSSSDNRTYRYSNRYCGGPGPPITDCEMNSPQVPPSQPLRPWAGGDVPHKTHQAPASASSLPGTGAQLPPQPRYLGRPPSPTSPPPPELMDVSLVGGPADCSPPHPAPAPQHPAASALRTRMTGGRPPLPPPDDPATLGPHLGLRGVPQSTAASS
Chain of SRSF protein kinase 3 (Homo sapiens) (Q9UPE1 whole entry): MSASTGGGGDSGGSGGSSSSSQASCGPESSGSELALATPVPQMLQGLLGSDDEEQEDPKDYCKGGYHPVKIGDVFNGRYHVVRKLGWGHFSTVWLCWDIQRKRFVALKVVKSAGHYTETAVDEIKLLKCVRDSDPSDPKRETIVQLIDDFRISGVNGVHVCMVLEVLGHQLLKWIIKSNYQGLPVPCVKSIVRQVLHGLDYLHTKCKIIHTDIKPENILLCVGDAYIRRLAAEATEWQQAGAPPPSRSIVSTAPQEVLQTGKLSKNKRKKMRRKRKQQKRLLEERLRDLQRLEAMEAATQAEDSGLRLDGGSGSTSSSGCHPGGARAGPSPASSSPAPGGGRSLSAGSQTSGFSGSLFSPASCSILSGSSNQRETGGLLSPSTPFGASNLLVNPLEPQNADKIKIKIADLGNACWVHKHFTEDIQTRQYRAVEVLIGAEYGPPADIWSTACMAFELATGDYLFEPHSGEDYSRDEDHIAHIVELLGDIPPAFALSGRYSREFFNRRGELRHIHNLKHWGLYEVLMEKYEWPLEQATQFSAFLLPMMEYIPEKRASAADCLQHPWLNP
Chain of Tyrosine-protein kinase Fer (Homo sapiens) (P16591 whole entry, looked up): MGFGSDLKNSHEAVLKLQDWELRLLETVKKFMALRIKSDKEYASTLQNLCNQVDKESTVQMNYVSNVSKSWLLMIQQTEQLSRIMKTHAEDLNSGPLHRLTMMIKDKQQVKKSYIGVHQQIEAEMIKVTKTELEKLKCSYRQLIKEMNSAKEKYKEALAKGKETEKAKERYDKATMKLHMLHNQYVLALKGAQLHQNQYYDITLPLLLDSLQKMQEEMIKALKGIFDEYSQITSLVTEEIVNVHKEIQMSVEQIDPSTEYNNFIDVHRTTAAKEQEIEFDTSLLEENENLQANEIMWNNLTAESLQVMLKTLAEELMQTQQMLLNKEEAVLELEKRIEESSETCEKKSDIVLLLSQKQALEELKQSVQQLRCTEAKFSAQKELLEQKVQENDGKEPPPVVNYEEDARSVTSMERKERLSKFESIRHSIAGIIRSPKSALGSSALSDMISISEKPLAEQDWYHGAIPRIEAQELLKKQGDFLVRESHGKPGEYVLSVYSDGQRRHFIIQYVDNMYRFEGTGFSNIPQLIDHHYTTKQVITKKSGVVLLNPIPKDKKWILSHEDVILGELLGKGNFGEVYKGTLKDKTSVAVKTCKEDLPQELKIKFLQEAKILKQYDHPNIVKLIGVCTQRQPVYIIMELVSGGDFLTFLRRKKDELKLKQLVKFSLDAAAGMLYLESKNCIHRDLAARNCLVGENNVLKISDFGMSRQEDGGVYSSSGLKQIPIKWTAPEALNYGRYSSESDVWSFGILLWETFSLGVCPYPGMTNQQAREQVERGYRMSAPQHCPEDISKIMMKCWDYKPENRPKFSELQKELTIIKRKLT

For `Cc1cc(F)c(C(=O)Nc2cccc(-c3nncn3C(C)C)n2)cc1-n1cnc(C2CC2)c1`, the % of control [1] was 100%.
For `Cn1cc(-n2cnc3c(NCc4nc5cc(Cl)c(Cl)cc5[nH]4)nc(N4CCOCC4)nc32)cn1`, the % of control [2] was 11.9%.
For `Cc1cc([C@@H](C)Nc2ccccc2C(=O)O)c2nc(N3CCOCC3)cc(=O)n2c1` [AZD-6482], the % of control [3] was 100%.
Work on `Cn1cc(Nc2nccc(N3CC4CCC(C3)N4C(=O)[C@@H]3CC3(F)F)n2)cn1` yielded a % of inhibition [4] of 62%.
Compound `N#Cc1cccc(-c2c[nH]c3ncnc(N4CCOCC4)c23)c1` has a % of control [5] of 70%.
With `CC[C@@H]1[C@H](F)C(=O)N[C@@H]1COc1nccc2cc(C(N)=O)c(OC)cc12` [ZIMLOVISERTIB] the % of inhibition [6] was -10.5% and the % of inhibition [7] was -9%.
`CCC(=O)N1CCN(c2ccc(-n3c(=O)ccc4cnc5ccc(-c6cnc7ccccc7c6)cc5c43)cc2C(F)(F)F)CC1` gave a % of control [8] of 90%.

From ChEMBL document CHEMBL5465560, “Selectivity Literature for EUbOPEN Chemogenomic Library” (2024)
